Test results as given in patent publication US10710992B2, “Substituted pyridinones as bromodomain inhibitors” (Zenith Epigenetics Ltd., priority 2014, dated 2020).

Assays:
[1] = system: c-myc in Human AML MV4-11 cells; assay: Inhibition of cMYC expression in cancer cell lines (mRNA, real-time PCR); assay type: cell-based; settings: Homo sapiens, 3 h, cMYC mRNA normalized to Cyclophilin
Experimental: MV4-11 cells (CRL-9591) were plated at a density of 2.5×10^4 cells per well in 96 well U-bottom plates and treated with increasing concentrations of test compound or DMSO (0.1%) in IMDM media containing 10% FBS and penicillin/streptomycin, and incubated for 3 h at 37° C. Triplicate wells were used for each concentration. Cells were pelleted by centrifugation and harvested using the mRNA Catcher PLUS kit according to manufacturer's instructions. The eluted mRNA isolated was then used in a one-step quantitative real-time PCR reaction, using components of the RNA UltraSense™ One-Step Kit (Life Technologies) together with Applied Biosystems TaqMan® primer-probes for cMYC and Cyclophilin. Real-time PCR plates were run on a ViiA™ 7 real time PCR machine (Applied Biosystems), data was analyzed, normalizing the Ct values for cMYC to an internal control, prior to determining the fold expression of each sample, relative to the control.

[2] = target: T1, Brd4 bromodomain 1 (BRD4(1)) (Homo sapiens, UniProt O60885); assay: Inhibition of tetra-acetylated histone H4 binding to BET bromodomain (HTRF/FRET); settings: His-tagged bromodomain 200 nM, tetra-acetylated histone H4 peptide, 2 h room temperature
T1 construct: made in house; host or cells: E. coli BL21(DE3)
Experimental: Proteins were cloned and overexpressed with a N-terminal 6× His tag, then purified by nickel affinity followed by size exclusion chromatography. Briefly, E. coli BL21(DE3) cells were transformed with a recombinant expression vector encoding N-terminally Nickel affinity tagged bromodomains from Brd2, Brd3, Brd4. Cell cultures were incubated at 37° C. with shaking to the appropriate density and induced overnight with IPTG. The supernatant of lysed cells was loaded onto Ni-IDA column for purification. Eluted protein was pooled, concentrated and further purified by size exclusion chromatography. Fractions representing monomeric protein were pooled, concentrated, aliquoted, and frozen at −80° C. for use in subsequent experiments.
Binding of tetra-acetylated histone H4 and BET bromodomains was confirmed by a Homogenous Time Resolved Fluorescence Resonance Energy Transfer (HTRF®) method. N-terminally His-tagged bromodomains (200 nM) and biotinylated tetra-acetylated historic H4 peptide (25-50 nM, Millipore) were incubated in the presence of Europium Cryptate-labeled streptavidin (Cisbio Cat. #610SAKLB) and XL665-labeled monoclonal anti-His antibody (Cisbio Cat. #61HISXLB) in a white 96 well microtiter plate (Greiner). For inhibition assays, serially diluted test compound was added to these reactions in a 0.2% final concentration of DMSO. Duplicate wells were used for each concentration tested. Final buffer concentrations were 30 mM HEPES pH 7.4, 30 mM NaCl, 0.3 mM CHAPS, 20 mM phosphate pH 7.0, 320 mM KF, 0.08% BSA. After a 2 h incubation at room temperature, fluorescence was measured at 665 and 620 nm with a SynergyH4 plate reader (Biotek). The binding inhibitory activity was shown by a decrease in 665 nm relative to […] fluorescence. IC50 values were determined from a dose response curve.

hIL-6 mRNA = assay: Inhibition of hIL-6 mRNA transcription in LPS-stimulated U937 cells; assay type: cell-based; settings: Homo sapiens, U-937; PMA-differentiated U937 cells, 1 h pretreatment, LPS 1 ug/mL, 3 h; read-out: IL-6 activity
Experimental: Human leukemic monocyte lymphoma U937 cells (CRL-1593.2) were plated at a density of 3.2×10^4 cells per well in a 96-well plate in 100 μL RPMI-1640 containing 10% FBS and penicillin/streptomycin, and differentiated into macrophages for 3 days in 60 ng/mL PMA ([…]) at 37° C. in 5% CO2 prior to the addition of compound. The cells were pretreated for 1 h with increasing concentrations of test compound in 0.1% DMSO prior to stimulation with 1 ug/mL lipopolysaccharide from Escherichia coli. Triplicate wells were used for each concentration. The cells were incubated at 37° C., 5% CO2 for 3 h before the cells were harvested. At time of harvest, media was removed and cells were rinsed in 200 μL PBS. Cells were harvested using the mRNA Catcher PLUS kit according to manufacturer's instructions. The eluted mRNA was then used in a one-step quantitative real-time PCR reaction using components of the RNA UltraSense™ One-Step Kit (Life Technologies) together with Applied Biosystems TaqMan® primer-probes for hIL-6 and Cyclophilin. Real-time PCR plates were run on a ViiA™ 7 real time PCR machine (Applied Biosystems), data was analyzed, normalizing the Ct values for hIL-6 to an internal control, prior to determining the fold expression of each sample, relative to the control.

hApoA-1 mRNA = assay: Up-regulation of hApoA-1 mRNA transcription in Huh7 cells; assay type: cell-based, Human; settings: EC170, Huh7 cells, 48 h
Experimental: In this example, hApoA-1 mRNA in tissue culture cells was quantitated to measure the transcriptional up-regulation of hApoA-1 when treated with a compound of the present disclosure.
Huh7 cells (2.5×10^5 per well) were plated in a 96-well plate using 100 μL DMEM per well, (Gibco DMEM supplemented with penicillin streptomycin and 10% FBS), 72 h before the addition of the compound. The cells are treated with increasing concentrations of the compound or DMSO (0.1%), and incubated at 37° C., 5% CO2 for 48 h. Spent media was removed from the Huh-7 cells and placed on ice for immediate use with the “LDH cytotoxicity assay Kit II” from Abcam. The cells remaining in the plate were rinsed with 100 μL PBS. Cells were harvested using the mRNA Catcher PLUS kit according to manufacturer's instructions. The eluted mRNA was then used in a one-step quantitative real-time PCR reaction, using components of the RNA UltraSense™ One-Step Kit (Life Technologies) together with Applied Biosystems TaqMan® primer-probes for hApoA-1 and Cyclophilin. Real-time PCR plates were run on a ViiA™ 7 real time PCR machine (Applied Biosystems), data was analyzed, normalizing the Ct values for hApoA-1 to an internal control, prior to determining the fold induction of each unknown sample, relative to the control.

Human AML MV-4-11 cells = assay: Inhibition of cell proliferation in cancer cell lines (CellTiter Aqueous One); assay type: cell-based; settings: Homo sapiens; MV4-11 cells, 72 h
Experimental: MV4-11 cells (CRL-9591) were plated at a density of 5×10^4 cells per well in 96 well flat bottom plates and treated with increasing concentrations of test compound or DMSO (0.1%) in IMDM media containing 10% FBS and penicillin/streptomycin. Triplicate wells were used for each concentration and a well containing only media was used as a control. Plates were incubated at 37° C., 5% CO2 for 72 h before adding 20 μL of the CellTiter Aqueous One Solution (Promega) to each well and incubated at 37° C., 5% CO2 for an additional 3-4 h. The absorbance was read at 490 nm in a spectrophotometer and the percentage of cell titer relative to DMSO-treated cells was calculated after correcting for background by subtracting the blank well's signal. IC50 values were calculated using the GraphPad Prism software.

| Structure (SMILES) | IC50 [1] [µM] | IC50 [2] [µM] | IC50 (hIL-6 mRNA) [µM] | ApoA-1 activity (hApoA-1 mRNA) | IC50 (Human AML MV-4-11 cells) [µM] |
| --- | --- | --- | --- | --- | --- |
| Cc1noc(C)c1-c1c[nH]c(=O)c(Nc2ccccc2)c1 [Example 1, 5-(3,5-dimethylisoxazol-4-yl)-3-(phenylamino)pyridin-2(1H)-one] | 3 to 30 | 0.3 to 3 | 0.3 to 3 | ++ (EC170 value between 0.3 and 3 μM were deemed to be very active (++)) | 3 to 30 |
| Cc1noc(C)c1-c1c[nH]c(=O)c(Nc2cccnc2)c1 [Example 2, 5-(3,5-dimethylisoxazol-4-yl)-3-(pyridin-3-ylamino)pyridin-2(1H)-one] |  | 3 to 30 | 3 to 30 | + (EC170 value between 3 and 30 μM were deemed to be active (+)) |  |
